Results on 14 compounds are retold here after publication PMC7481482, “Development of Anthraquinone Derivatives as Ectonucleoside Triphosphate Diphosphohydrolase (NTPDase) Inhibitors With Selectivity for NTPDase2 and NTPDase3” (Frontiers in Pharmacology, 2020).

Holding throughout (type): biochemical
The target in one assay is T1, human NTPDase1 (Homo sapiens, UniProt P49961).
T1 construct: expressed in transfected cells; host or cells: COS-7 cells (membrane preparation)
T1 sequence (P49961 1-510): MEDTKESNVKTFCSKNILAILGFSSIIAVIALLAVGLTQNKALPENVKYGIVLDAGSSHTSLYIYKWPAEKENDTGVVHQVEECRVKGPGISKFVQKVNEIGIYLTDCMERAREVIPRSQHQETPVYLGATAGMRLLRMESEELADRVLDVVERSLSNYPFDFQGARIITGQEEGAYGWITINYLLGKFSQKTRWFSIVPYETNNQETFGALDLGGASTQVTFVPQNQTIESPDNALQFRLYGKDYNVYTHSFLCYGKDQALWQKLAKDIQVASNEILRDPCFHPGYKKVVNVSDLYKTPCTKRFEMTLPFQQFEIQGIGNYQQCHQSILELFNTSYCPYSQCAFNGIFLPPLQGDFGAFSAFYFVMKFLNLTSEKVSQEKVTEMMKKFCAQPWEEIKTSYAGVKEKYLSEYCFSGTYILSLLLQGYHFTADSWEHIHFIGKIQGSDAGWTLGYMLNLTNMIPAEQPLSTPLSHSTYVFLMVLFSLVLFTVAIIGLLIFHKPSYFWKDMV
Put plainly: Malachite green assay, human NTPDase1. The following applies: 2 μM compound; 50 µM ATP; COS-7 membrane preparation; read-out: % inhibition at 2 μM concentration, NTPDase1. On the procedure:
(§1) Membrane preparations expressing human NTPDase1, -2, -3, or -8, respectively, were obtained as previously described ([Sévigny et al., 1997]; [Cogan et al., 1999]; [Kukulski et al., 2005]; [Lecka et al., 2013]; [Lee et al., 2018]). Enzyme inhibition assays were performed using the malachite green assay in analogy to published procedures with some modifications ([Dou et al., 2018]). The reaction buffer contained 10 mM HEPES, 2 mM CaCl2, and 1 mM MgCl2 (pH 7.4) in a final volume of 50 μL in transparent 96-well half-area plates. The compounds were initially tested at a final concentration of 2 µM using a COS-7-cell membrane preparation expressing the appropriate NTPDase isoenzyme (protein amount: 143 ng for NTPDase1, 175 ng for NTPDase2, 152 ng for NTPDase3, and 175 ng for NTPDase8). Preincubated of the enzyme preparations was perfomred at 37°C in the presence or absence of test compounds with gentle shaking (Eppendorf Thermomixer comfort at 500 rpm) for 5 min. […] ([Kukulski et al., 2005]). After 15 min of incubation at 37°C with gentle shaking, the reaction was stopped by the addition of the detection reagents (20 µL malachite green solution, 0.6 mM, and 30 µL of ammonium molybdate solution, 20 mM, in 1.5 M sulfuric acid). The released inorganic phosphate was quantified after 20 min of gentle shaking at 25°C by measuring the absorption of the malachite green-phosphomolybdate complex at 600 nm using a BMG PheraStar FS plate reader (BMG Labtech GmbH, Ortenberg, Germany). The corrected absorption was calculated by subtracting the absorption of the negative control samples, which were incubated with previously denatured enzyme (90°C, 15 min). Full concentration-inhibition curves were determined with inhibitor concentrations ranging from 0.03 to 30 µM in the presence of 2% DMSO. Inhibition-type experiments were performed with 25, 50, 100, 150 and 200 µM ATP as substrate for NTPDase2 in the presence of inhibitor 20 (0, 0.25, 0.5, and 1 µM) and 25, 50, 100 and 150 µM ATP substrate for NTPDase3 and compound 42 (0.25, 0.5, and 1 µM). For all of the presented data, at least three independent experiments were performed, and IC50 values were calculated by GraphPad Prism 8 software.
(§2) Inhibition of human NTPDases was performed using the malachite green assay, which was established on a robotic system (Z’ factors > 0.70) ([Baykov et al., 1988]; [Fiene et al., 2015]). The malachite green assay enables the detection of the phosphate produced by the enzymatic hydrolysis of nucleotides. A fixed substrate concentration of 50 µM ATP for NTPDase1 and 100 µM for NTPDase2, -3, and -8 was employed. Test compounds were initially screened at a concentration of 2 μM. […] A total of 48 synthesized anthraquinone derivatives including 14 new compounds not previously described in the literature were evaluated for their inhibitory activity at human NTPDase1, -2, -3, and -8 (for results see Table 1).

A further assay deals with T2, human NTPDase3 (Homo sapiens, UniProt O75355).
T2 construct: expressed in transfected cells; host or cells: COS-7 cells (membrane preparation)
T2 sequence (O75355 1-529): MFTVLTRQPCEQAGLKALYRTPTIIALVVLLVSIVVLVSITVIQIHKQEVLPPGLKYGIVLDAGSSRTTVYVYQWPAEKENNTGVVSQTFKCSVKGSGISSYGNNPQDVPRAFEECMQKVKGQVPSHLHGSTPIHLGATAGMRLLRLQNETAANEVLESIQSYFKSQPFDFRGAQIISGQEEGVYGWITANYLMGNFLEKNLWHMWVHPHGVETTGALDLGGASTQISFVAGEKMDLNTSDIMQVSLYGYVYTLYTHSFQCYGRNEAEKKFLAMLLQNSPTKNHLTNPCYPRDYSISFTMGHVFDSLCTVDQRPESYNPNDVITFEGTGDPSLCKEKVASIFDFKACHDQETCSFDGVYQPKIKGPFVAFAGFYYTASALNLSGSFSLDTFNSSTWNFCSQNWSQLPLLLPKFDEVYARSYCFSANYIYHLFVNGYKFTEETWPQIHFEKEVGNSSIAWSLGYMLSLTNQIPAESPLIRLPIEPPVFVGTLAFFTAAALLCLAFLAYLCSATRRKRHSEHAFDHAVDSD
Put plainly: Malachite green assay, human NTPDase3. To be noted: for inhibition at 2 µM: 2 μM compound, read-out: % inhibition at 2 μM concentration, NTPDase3; for inhibition at 2 µM / IC50: 100 µM ATP, COS-7 membrane preparation; for IC50: read-out: IC50 ± SEM, NTPDase3. On the procedure: as §1, §2

In another assay the target is T3, human NTPDase2 (Homo sapiens, UniProt Q9Y5L3).
T3 construct: expressed in transfected cells; host or cells: COS-7 cells (membrane preparation)
T3 sequence (Q9Y5L3 1-495): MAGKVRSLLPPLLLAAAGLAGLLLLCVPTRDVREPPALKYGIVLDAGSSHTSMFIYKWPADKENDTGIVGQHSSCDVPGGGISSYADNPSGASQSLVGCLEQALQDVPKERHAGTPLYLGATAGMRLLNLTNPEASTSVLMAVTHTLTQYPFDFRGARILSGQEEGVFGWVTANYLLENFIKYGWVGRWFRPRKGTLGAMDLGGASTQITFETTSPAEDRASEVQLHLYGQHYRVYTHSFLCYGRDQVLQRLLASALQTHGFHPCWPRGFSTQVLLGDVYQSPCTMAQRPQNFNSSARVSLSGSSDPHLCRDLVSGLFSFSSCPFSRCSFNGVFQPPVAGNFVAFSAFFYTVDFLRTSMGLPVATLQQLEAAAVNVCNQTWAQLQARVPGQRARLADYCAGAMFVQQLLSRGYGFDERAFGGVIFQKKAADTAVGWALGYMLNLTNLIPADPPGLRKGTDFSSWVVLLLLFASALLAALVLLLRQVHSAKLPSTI
Put plainly: Malachite green assay, human NTPDase2. The following applies: 100 µM ATP, COS-7 membrane preparation; for inhibition at 2 µM: 2 μM compound, read-out: % inhibition at 2 μM concentration, NTPDase2; for IC50: read-out: IC50 ± SEM, NTPDase2. The method, then:
as §1, §2

Another assay has as its target T4, human NTPDase8 (Homo sapiens, UniProt Q5MY95).
T4 construct: expressed in transfected cells; host or cells: COS-7 cells (membrane preparation)
T4 sequence (Q5MY95 1-495): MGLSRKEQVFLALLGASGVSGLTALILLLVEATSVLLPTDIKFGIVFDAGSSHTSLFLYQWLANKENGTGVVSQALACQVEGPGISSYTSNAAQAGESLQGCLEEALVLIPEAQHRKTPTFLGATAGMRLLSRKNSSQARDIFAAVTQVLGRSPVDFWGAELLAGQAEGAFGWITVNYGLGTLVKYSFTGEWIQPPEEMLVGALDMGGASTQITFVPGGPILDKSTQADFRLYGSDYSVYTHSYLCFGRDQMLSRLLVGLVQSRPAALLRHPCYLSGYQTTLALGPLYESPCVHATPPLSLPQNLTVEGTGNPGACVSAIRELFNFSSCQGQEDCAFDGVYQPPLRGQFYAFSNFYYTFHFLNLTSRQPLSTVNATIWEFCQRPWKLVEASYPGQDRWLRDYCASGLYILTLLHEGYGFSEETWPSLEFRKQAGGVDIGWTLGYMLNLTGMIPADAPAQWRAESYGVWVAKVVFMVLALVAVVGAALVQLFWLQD
Put plainly: Malachite green assay, human NTPDase8. To be noted: 2 μM compound; 100 µM ATP; COS-7 membrane preparation; read-out: % inhibition at 2 μM concentration, NTPDase8. On the procedure: as §1, §2

`Cc1cc(Nc2cccc(F)c2)c2c(c1N)C(=O)c1ccccc1C2=O` [Compound 54]: the inhibition at 2 µM is -4% at human NTPDase1, -2% at human NTPDase3, 7% at human NTPDase2 and -2% on human NTPDase8.

On to `Cc1ccc(Sc2ccc(Nc3cc(S(=O)(=O)O)c(N)c4c3C(=O)c3ccccc3C4=O)cc2)cc1C` [Compound 51], for which the inhibition at 2 µM at human NTPDase1 was found to be 51%; on human NTPDase3, 44%; on human NTPDase8, 27%. The IC50 (as a rule, the concentration that inhibits the measured activity by half) at human NTPDase2 amounted to 832 ± 53 nM.

In the case of `Nc1ccc(Nc2cc(S(=O)(=O)O)c(N)c3c2C(=O)c2ccccc2C3=O)cc1S(=O)(=O)O` [Compound 32], the inhibition at 2 µM on human NTPDase1 was 10%; at human NTPDase2, 5%; on human NTPDase8, -20%. The IC50 on human NTPDase3 was 1730 ± 550 nM.

As for `Cc1ccc(Sc2ccc(Nc3cc(S(=O)(=O)O)c(N)c4c3C(=O)c3ccccc3C4=O)cc2)c(C)c1` [Compound 49], the inhibition at 2 µM at human NTPDase1 is 46%; at human NTPDase3, 36%; at human NTPDase8 it was 27%. In addition, the IC50 on human NTPDase2 was 1280 ± 340 nM.

On to `Nc1c(S(=O)(=O)O)cc(Nc2cccc(Br)c2)c2c1C(=O)c1ccccc1C2=O` [Compound 22], for which the inhibition at 2 µM was -4% on human NTPDase1, 12% at human NTPDase2 and -26% on human NTPDase8. Also, the IC50 on human NTPDase3 was 8960 ± 1080 nM.

On to `Nc1c(S(=O)(=O)O)cc(Nc2ccc(S(=O)(=O)O)c(Nc3nc(Cl)nc(Cl)n3)c2)c2c1C(=O)c1ccccc1C2=O` [Compound 42, 1-amino-4-[3-(4,6-dichlorotriazin-2-ylamino)-4-sulfophenylamino]-9,10-dioxo-9,10-dihydroanthracene-2-sulfonate], for which the inhibition at 2 µM is -2% on human NTPDase1, 10% on human NTPDase2 and -7% on human NTPDase8. Moreover, at human NTPDase3, the IC50 came out at 390 ± 41 nM. Moreover, the “inhibition type, NTPDase3” value on human NTPDase3 (Hanes-Woolf plot, 25-150 µM ATP, inhibitor 0.25, 0.5, 1 µM) is given as “mixed-type”.

Regarding `Nc1c(S(=O)(=O)O)cc(Nc2cccc3cccc(S(=O)(=O)O)c23)c2c1C(=O)c1ccccc1C2=O` [Compound 17], the inhibition at 2 µM on human NTPDase1 was -1%; at human NTPDase2, 15%; at human NTPDase8, -11%. Besides, the IC50 on human NTPDase3 came out at 1640 ± 260 nM.

In the case of `Nc1c(S(=O)(=O)O)cc(NCc2ccccc2)c2c1C(=O)c1ccccc1C2=O` [Compound 12], the inhibition at 2 µM is -10% on human NTPDase1, 6% at human NTPDase3, 11% at human NTPDase2 and 3% at human NTPDase8.

In the case of `Nc1cc(Nc2cc(S(=O)(=O)O)c(N)c3c2C(=O)c2ccccc2C3=O)ccc1S(=O)(=O)O` [Compound 31], the inhibition at 2 µM on human NTPDase1 was -15%; at human NTPDase2, 1%; at human NTPDase8 it was -19%. Further, at human NTPDase3, the IC50 was determined as 4260 ± 540 nM.

As to `Nc1c(S(=O)(=O)O)cc(Nc2ccc(O)c(C(=O)O)c2)c2c1C(=O)c1ccccc1C2=O` [Compound 33, 1-amino-4-(3-carboxy-4-hydroxyphenylamino)-9,10-dioxo-9,10-dihydroanthracene-2-sulfonate], the inhibition at 2 µM is -12% at human NTPDase1, 12% on human NTPDase2 and -9% at human NTPDase8. For the same compound, the IC50 at human NTPDase3 stood at 723 ± 32 nM.

Regarding `Nc1c(Br)cc(Nc2cccc(C(=O)O)c2)c2c1C(=O)c1ccccc1C2=O` [Compound 52], the inhibition at 2 µM at human NTPDase1 is -2%; on human NTPDase3, 1%; at human NTPDase2, -5%; at human NTPDase8 it was 3%.

`Nc1c(S(=O)(=O)O)cc(Nc2ccc(Oc3ccc(Br)cc3)cc2)c2c1C(=O)c1ccccc1C2=O` [Compound 46]: the inhibition at 2 µM at human NTPDase1 is 33%; on human NTPDase3, 21%; on human NTPDase8 it was 10%. Besides, the IC50 on human NTPDase2 is 1730 ± 290 nM.

Take `Nc1c(S(=O)(=O)O)cc(Nc2ccc3cc(C(=O)O)ccc3c2)c2c1C(=O)c1ccccc1C2=O` [Compound 19]: the inhibition at 2 µM at human NTPDase1 is 0%; on human NTPDase2, 13%; at human NTPDase8, -35%. The IC50 on human NTPDase3 was found to be 4720 ± 400 nM.

With `Nc1c(S(=O)(=O)O)cc(Nc2cccc(Oc3ccccc3)c2)c2c1C(=O)c1ccccc1C2=O` [Compound 40], the inhibition at 2 µM turned out to be 12% at human NTPDase1, 18% on human NTPDase3 and 9% on human NTPDase8. Besides, the IC50 at human NTPDase2 amounted to 1110 ± 60 nM.
